Test results published in ChEMBL document CHEMBL3233007, “Prenylated coumarins: natural phosphodiesterase-4 inhibitors from Toddalia asiatica” (J Nat Prod, 2014).

Target: 3',5'-cyclic-AMP phosphodiesterase 4D (Homo sapiens, UniProt Q08499)
Assay: Inhibition of human PDE4D2 catalytic domain (86 to 413aa) expressed in Escherichia coli strain BL21 after 15 mins by liquid scintillation counting in presence of [3H]-cAMP

Sequence of 3',5'-cyclic-AMP phosphodiesterase 4D (Q08499 whole entry, the tested form may be a part): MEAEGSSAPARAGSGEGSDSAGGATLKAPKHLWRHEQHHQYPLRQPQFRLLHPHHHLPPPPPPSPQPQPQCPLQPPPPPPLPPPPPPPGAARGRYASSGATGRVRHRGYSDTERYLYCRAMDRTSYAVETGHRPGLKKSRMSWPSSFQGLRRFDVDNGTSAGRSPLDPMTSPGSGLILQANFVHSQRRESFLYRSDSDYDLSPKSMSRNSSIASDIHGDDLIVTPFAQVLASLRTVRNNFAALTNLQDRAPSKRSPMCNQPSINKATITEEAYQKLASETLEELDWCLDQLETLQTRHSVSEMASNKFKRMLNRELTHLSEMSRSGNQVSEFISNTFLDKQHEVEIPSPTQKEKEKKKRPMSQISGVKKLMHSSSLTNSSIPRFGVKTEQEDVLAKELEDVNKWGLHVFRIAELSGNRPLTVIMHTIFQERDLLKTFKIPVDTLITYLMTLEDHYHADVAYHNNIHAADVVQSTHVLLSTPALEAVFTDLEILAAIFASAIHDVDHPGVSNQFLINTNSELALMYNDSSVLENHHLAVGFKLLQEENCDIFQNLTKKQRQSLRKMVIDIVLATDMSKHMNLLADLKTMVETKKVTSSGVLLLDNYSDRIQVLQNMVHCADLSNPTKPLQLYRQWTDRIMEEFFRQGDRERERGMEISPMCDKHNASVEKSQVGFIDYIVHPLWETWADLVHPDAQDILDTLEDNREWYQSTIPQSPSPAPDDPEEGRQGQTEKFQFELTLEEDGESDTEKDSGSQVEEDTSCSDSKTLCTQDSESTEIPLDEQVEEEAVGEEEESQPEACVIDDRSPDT

| IC50 [µM] | SMILES |
| --- | --- |
| 1.53 | COc1cc2ccc(=O)oc2c2c1OC(C)(C)CC2 |
| 0.14 | COc1cc(OC)c2ccc(=O)oc2c1/C=C/[C@H]1C[C@@H](C=C(C)C)c2c(c3ccccc3n(C)c2=O)O1 |
| 2.38 | CC1(C)C=Cc2c(c(O)cc3ccc(=O)oc23)O1 |
| 5.51 | COC1=CC(=O)c2cc(C)cc(-c3c(OC)cc(OC)c4ccc(=O)oc34)c2C1=O |
| 2.2 | COc1cc2c(c3oc(=O)ccc13)CCC(C)(C)O2 |
| 7.81 | COc1cc(O)c(/C=C/C(=O)O[C@@H](Cc2c(OC)cc3oc(=O)ccc3c2OC)C(C)(C)O)c(OC)c1CC=C(C)C |
| 11.5 | COc1cc2oc(=O)ccc2c(OC)c1CCC(C)C |
| 1.87 | COc1cc2c(c3oc(=O)ccc13)C=CC(C)(C)O2 |
| 10.2 | COc1cc(OC)c2ccc(=O)oc2c1CCC(C)C |
| 9.98 | COc1cc2oc(=O)ccc2c(OC)c1CC=C(C)C |
| 6.82 | COc1cc(OC)c2ccc(=O)oc2c1CC=C(C)C |
| 16.7 | COc1cc2oc(=O)ccc2c(OC)c1C[C@H](OC(=O)[C@]1(O)C[C@@H](O)[C@@H](O)[C@H](OC(=O)/C=C/c2ccc(O)c(O)c2)C1)C(C)(C)O |
